According to US11617735B2, “Purified forms of rofecoxib, methods of manufacture and use” (Tremeau Pharmaceuticals, Inc., priority 2018, dated 2023):
Where two headings read alike, the source gives them in different places.

Columns and labels:
bacterial mutagenicity = conditions: cited from earlier work
[1] = in vivo; cited from earlier work
arthritis model = conditions: in vivo; cited from earlier work
[2] = Solubility in solvents by UHPLC assay; format: physicochemical
From the text: The tool called “Early phase solvent selection: solubility prediction” was used. This tool allows to predict the solubility of material in a large scope of solvents, knowing the solubility in some of them. The solubility can be also predicted in function of temperature, and for solvent combinations. The solubility prediction is based on similar structures moieties between solvents. Therefore, the measurement of solubility in 16 different solvents allowed for the estimate of solubility in up to 106 solvents. […] Solubilities were obtained by UHPLC assay. Among these 106 solvents, 27 seemed interesting as solvent or antisolvent. DMF. NMP and DMSO are the solvents in which rofecoxib (RXB-201) is the most soluble (>100 g/L at 30° C.). Nevertheless, ICH Q3C, DMF and NMP were less suitable than DMSO which remains the best option. Thus, no changes were implemented regarding the solvent.
Since the main purpose of the recrystallization is to decrease the rate of one single identified impurity, 4-[4-(methylsulfinyl)phenyl]-3-phenyl-2(5H)-furanone solubilities were measured in a couple of probable antisolvents identified in Table 9. A reference of 4-[4-(methylsulfinyl)phenyl]-3-phenyl-2(5H)-furanone (CHG P059-038) was synthesized at lab on 8 g for this study, with 98% purity, as per International Patent Application No. WO/2005/120584, which is incorporated herein in its entirety. Table 10 below reports the solubility of 4-[4-(methylsulfinyl)phenyl]-3-phenyl-2(5H)-furanone in various antisolvent candidates. It is noteworthy that 4-[4-(methylsulfinyl)phenyl]-3-phenyl-2(5H)-furanone is very soluble in acetic acid. […] Alcohols can alternatively be employed as antisolvent.

[3] = Stability of rofecoxib drug substance at 25° C./60% RH; format: physicochemical; conditions: Lot 16P3140F851
Experimental: (§1) Stability data for rofecoxib drug substance (Lot 16P3140F851) are provided in Tables 6A-B. If an individual impurity is ≥0.05% area, the result is reported to the nearest 0.01%. If an individual impurity is <0.02% (LOD), the result is reported as “not detected” (ND). If an individual impurity is <0.05% area but ≥0.02% area, the result is recorded as <0.05% area.

[4] = Stability of isolated crude rofecoxib towards hydrogen peroxide; format: physicochemical; conditions: crude unwashed, stored at room temperature for 17 days (CHG P059-104)
Experimental: Several verifications were performed to confirm the feasibility of hydrogen peroxide removal: • No corrosion of Stainless steel 316L in contact with crude rofecoxib (RXB-201) mother liquors (enriched in excess hydrogen peroxide) after 10 days at 20° C. […] Crude washings seem to be efficient enough to remove peroxide traces in cake washings. • Stability of isolated crude rofecoxib (RXB-201) towards hydrogen peroxide is very satisfying. Crude unwashed rofecoxib (RXB-201) was stored at room temperature for 17 days. No evolution of UHPLC profile was observed (CHG P059-104).

rats = conditions: dose levels up to 8 mg/kg; cited from earlier work
[5] = test system: Salmonella typhimurium (TA98, TA100, TA1535, TA97a) and E. coli (WP2, WP2uvrA, WP2 uvrA pKM101); conditions: with and without S9, up to 6000 μg/plate; cited from earlier work
mice = conditions: dose levels up to 60 mg/kg; cited from earlier work
[6] = RXB-Hydroxy formation from rofecoxib in DMSO with Na2SO3 under air (UHPLC); format: physicochemical; conditions: 5.5V DMSO
Experimental: Trials were performed to check the effect of both temperature and sodium sulfite on the 4-[4-(methylsulphonyl)phenyl]-3-phenyl-5-hydroxyfuran-2-one rate. Pure rofecoxib (RXB-201) (F851) was solubilized in 5.5V DMSO. on which Na2SO3 was added. Three amounts of Na2SO3 were tested: • 0%: rofecoxib (RXB-201) post filtration • 0.5%: ashes result obtained on pilot batch (crude rofecoxib (RXB-201) F801) • 1.5%: ashes result obtained on APG P052-110 batch
Samples were subjected to 2 different temperatures under air atmosphere: • 40° C.: current heating temperature for polishing filtration • 60° C.: possible future temperature for polishing filtration if DMSO volumes are reduced for better productivity.

[7] = test system: Chinese hamster lung cells; conditions: all concentrations tested, with and without S-9; cited from earlier work
CHO cells = conditions: 25 to 125 μM with S-9 or 25 to 100 μM without S-9; cited from earlier work
[8] = Stability of rofecoxib drug substance at 40° C./75% RH; format: physicochemical; conditions: Lot 16P3140F851
Experimental: as §1

[9] = analog data from software training sets / literature

## CS(=O)(=O)c1ccc(C(=O)CBr)cc1 [LS-394467, 2-Bromo-1-[4-(methylsulfonyl)phenyl]-1-ethanone]
Bacterial mutagenicity; [9]
  Experimental mutagenicity: positive

## C[S+]([O-])c1ccc(C2=C(c3ccccc3)C(=O)OC2)cc1 (stereo not drawn) [A-STG4-01, 4-(4-(methylsulfinyl)phenyl)-3-phenylfuran-2(5H)-one]
[1]
  Pharmacokinetic profile compared with rofecoxib: slightly improved
Arthritis model
  Pharmacological activity in an arthritis model compared with rofecoxib: better
[2]; acetic acid, 30 °C, organic solvent or mixture, Table 10: Acetic acid, 30 °C, read-out: Solubility
  solubility: 1540 mg/mL
[2]; acetic acid, organic solvent or mixture, acetic acid, temperature not stated, read-out: Solubility in acetic acid
  solubility: > 1000 mg/mL
[2]; ethanol, 30 °C, organic solvent or mixture, Table 10: Ethanol, 30 °C, read-out: Solubility
  solubility: 28 mg/mL
[2]; isopropanol (IPA), 30 °C, organic solvent or mixture, Table 10: IPA, 30 °C, read-out: Solubility
  solubility: 0.2 mg/mL
[2]; n-butanol, 30 °C, organic solvent or mixture, Table 10: n-Butanol, 30 °C, read-out: Solubility
  solubility: 14 mg/mL
[2]; water, 30 °C, water, Table 10: Water, 30 °C, read-out: Solubility
  solubility: 0.7 mg/mL

## N#CCc1ccccc1 [A-RSM2-01, 2-phenylacetonitrile]
Bacterial mutagenicity; [9]
  Experimental mutagenicity: negative

## CS(=O)(=O)c1ccc(C2=C(c3ccccc3)C(=O)OC2)cc1 [Rofecoxib, 4-[4-(methylsulfonyl)phenyl]-3-phenyl-2(5H)-furanone]
[3]; 3 Month
  Appearance: White
  Assay by HPLC: 100.4 % w/w
  Impurities by HPLC: RRT ~ 0.5: <0.05 % area
  Impurities by HPLC: RXB-furanone: 0.08 % area
  Impurities by HPLC: Total Impurities: 0.11 % area
  Water Content by Karl Fischer: 0.08%
[3]; Initial
  Appearance: Off-white
  Assay by HPLC: 99.8 % w/w
  Impurities by HPLC: RRT ~ 0.5: <0.05 % area
  Impurities by HPLC: RXB-furanone: 0.08 % area
  Impurities by HPLC: Total Impurities: 0.11 % area
  Polymorphic form by XRPD: Form A
  Water Content by Karl Fischer: 0.12%
[4]
  Evolution of UHPLC profile: No evolution
rats
  Carcinogenicity: not carcinogenic
[5]
  Mutagenicity: negative
mice
  Carcinogenicity: not carcinogenic
[6]; 0% Na2SO3 (residue on ignition), IPC1 (3 h), 40° C.
  RXB-Hydroxy (UPLC): 0.08 % a/a
[6]; 0% Na2SO3 (residue on ignition), IPC1 (3 h), 60° C.
  RXB-Hydroxy (UPLC): 0.16 % a/a
[6]; 0% Na2SO3 (residue on ignition), IPC2 (6 h), 40° C.
  RXB-Hydroxy (UPLC): 0.14 % a/a
[6]; 0% Na2SO3 (residue on ignition), IPC2 (6 h), 60° C.
  RXB-Hydroxy (UPLC): 0.17 % a/a
[6]; 0.5% Na2SO3 (residue on ignition), IPC1 (3 h), 40° C.
  RXB-Hydroxy (UPLC): 0.30 % a/a
[6]; 0.5% Na2SO3 (residue on ignition), IPC1 (3 h), 60° C.
  RXB-Hydroxy (UPLC): 0.35 % a/a
[6]; 0.5% Na2SO3 (residue on ignition), IPC2 (6 h), 40° C.
  RXB-Hydroxy (UPLC): 0.45 % a/a
[6]; 0.5% Na2SO3 (residue on ignition), IPC2 (6 h), 60° C.
  RXB-Hydroxy (UPLC): 0.52 % a/a
[6]; 1.5% Na2SO3 (residue on ignition), IPC1 (3 h), 40° C.
  RXB-Hydroxy (UPLC): 0.38 % a/a
[6]; 1.5% Na2SO3 (residue on ignition), IPC1 (3 h), 60° C.
  RXB-Hydroxy (UPLC): 0.67 % a/a
[6]; 1.5% Na2SO3 (residue on ignition), IPC2 (6 h), 40° C.
  RXB-Hydroxy (UPLC): 0.60 % a/a
[6]; 1.5% Na2SO3 (residue on ignition), IPC2 (6 h), 60° C.
  RXB-Hydroxy (UPLC): 0.73 % a/a
[7]
  Mutations in Chinese hamster lung cells: negative
CHO cells
  Percent of aberrant cells: no significant increases
[2]; DMF, 30 °C
  solubility: 133 mg/mL
[2]; DMF, 30 °C, organic solvent or mixture, DMF, 30 °C, read-out: Solubility
  solubility: > 100 mg/mL
[2]; DMSO, 20 °C, organic solvent or mixture, DMSO, 20 °C, read-out: Solubility
  solubility: 93 mg/mL
[2]; DMSO, 30 °C
  solubility: 107 mg/mL
[2]; DMSO, 30 °C, organic solvent or mixture, DMSO, 30 °C, read-out: Solubility
  solubility: > 100 mg/mL
[2]; DMSO, 40 °C, organic solvent or mixture, DMSO, 40 °C, read-out: Solubility
  solubility: 133 mg/mL
[2]; DMSO, 50 °C, organic solvent or mixture, DMSO, 50 °C, read-out: Solubility
  solubility: 181 mg/mL
[2]; DMSO, 60 °C, organic solvent or mixture, DMSO, 60 °C, read-out: Solubility
  solubility: 181 mg/mL
[2]; NMP, 30 °C, organic solvent or mixture, NMP, 30 °C, read-out: Solubility
  solubility: > 100 mg/mL
[2]; acetic acid, 30 °C, organic solvent or mixture, Acetic acid, 30 °C, read-out: Solubility
  solubility: 5 mg/mL
[2]; acetone, 30 °C, organic solvent or mixture, Acetone, 30 °C, read-out: Solubility
  solubility: 28 mg/mL
[2]; acetonitrile, 30 °C, organic solvent or mixture, Acetonitrile, 30 °C, read-out: Solubility
  solubility: 41 mg/mL
[2]; anisole, 30 °C, organic solvent or mixture, Anisole, 30 °C, read-out: Solubility
  solubility: 22 mg/mL
[2]; chlorobenzene, 30 °C, organic solvent or mixture, Chlorobenzene, 30 °C, read-out: Solubility
  solubility: 2.3 mg/mL
[2]; dichloromethane, 30 °C, organic solvent or mixture, Dichloromethane, 30 °C, read-out: Solubility
  solubility: 45 mg/mL
[2]; ethyl acetate, 30 °C, organic solvent or mixture, Ethyl acetate, 30 °C, read-out: Solubility
  solubility: 4.7 mg/mL
[2]; methanol, 30 °C, organic solvent or mixture, Methanol, 30 °C, read-out: Solubility
  solubility: 1.8 mg/mL
[2]; n-butanol, 30 °C, organic solvent or mixture, n-butanol, 30 °C, read-out: Solubility
  solubility: 0.2 mg/mL
[2]; n-heptane, 30 °C, organic solvent or mixture, n-heptane, 30 °C, read-out: Solubility
  solubility: < 0.1 mg/mL
[2]; toluene, 30 °C, organic solvent or mixture, Toluene, 30 °C, read-out: Solubility
  solubility: 1.2 mg/mL
[2]; water, 30 °C, water, 30 °C, read-out: Solubility
  solubility: < 0.1 mg/mL
[2]; water, insoluble regarding US pharmacopeia
  Solubility in water (descriptive): very poorly soluble
[8]; 1 Month
  Appearance: Off-white
  Assay by HPLC: 99.6 w/w
  Impurities by HPLC: RRT ~ 0.5: <0.05 % area
  Impurities by HPLC: RXB-furanone: 0.08 % area
  Impurities by HPLC: Total Impurities: 0.11 % area
  Water Content by Karl Fischer: 0.07%
[8]; 3 Month
  Appearance: White
  Assay by HPLC: 100.5 w/w
  Impurities by HPLC: RRT ~ 0.5: <0.05 % area
  Impurities by HPLC: RXB-furanone: 0.08 % area
  Impurities by HPLC: Total Impurities: 0.12 % area
  Water Content by Karl Fischer: 0.09%
[8]; Initial
  Appearance: Off-white
  Assay by HPLC: 99.8 w/w
  Impurities by HPLC: RRT ~ 0.5: <0.05 % area
  Impurities by HPLC: RXB-furanone: 0.08 % area
  Impurities by HPLC: Total Impurities: 0.11 % area
  Polymorphic form by XRPD: Form A
  Water Content by Karl Fischer: 0.12%

## c1ccc(SCCSc2ccccc2)cc1 [1,2-bis(phenylthio)ethane]
Bacterial mutagenicity; [9]
  Experimental mutagenicity: non-mutagenic

## O=C(CBr)c1ccccc1 [LS-188087, 2-bromoacetophenone]
Bacterial mutagenicity
  Experimental mutagenicity: negative
